Results from EP0934249B1, “CONFORMATIONALLY RESTRICTED POLYAMINES AND THEIR USE AS ANTINEOPLASTIC AGENTS” (WISCONSIN ALUMNI RESEARCH FOUNDATION, priority 1996, dated 1998).
Where a name gives a salt, the structure may show the parent alone.

Experiments:
Type in all cases: cell-based
[1] = system: MCF7; experiment: colony formation (plating efficiency) cell survival assay, standard protocol of Examples 1-8; conditions: Homo sapiens; survival of cultured breast cancer cells MCF7; 4 hours drug exposure, colonies counted day 15-20; read-out: ED50 (the source's name)
Protocol: (§1) Human breast cancer cell line MCF7 was grown in Richter's Improved Modified Eagle's Medium supplemented with 10% fetal bovine serum (FBS) and 2.2 g/L sodium bicarbonate. Human brain cancer cell line U251MG-NCI was grown in Dulbecco's Modified Eagle's Medium supplemented with 10% FBS. Human lung cancer cell line A549 was grown in Ham's F-12K medium (Fisher Scientific, Itasca, Illinois), supplemented with 10% FBS and 2 mM L-glutamine. Human colon cancer cell line HT29 was cultured in McCoy's 5A medium (Gibco, BRL, Gaithersburg, Maryland), supplemented with 10% FBS. Human prostate cancer cell line PC3 was grown in Dulbecco's Modified Eagles Medium supplemented with 5% FBS. The A549 and MCF7 cell lines were cultured in 100 units/mL penicillin and 100 µg/mL streptomycin. HT29 and U251MG cell lines were grown in 50 µg/mL gentamycin. PC3 cell lines were maintained in 1% antibiotic-antimycotic solution (Sigma, St. Louis, Missouri). The cell cultures were maintained at 37°C in 5% CO2/95% humidified air. All cell cultures are available from the American Type Culture Collection, Rockville, Maryland.
Ten standard culture flasks for each drug to be tested were plated with 5 x 10^5 cells of a given type in 5 mL of media and allowed to incubate for 16-24 hours at 37°C.
Fresh stocks of the compounds to be evaluated are prepared. For each drug, two of the ten culture flasks prepared on Day 1 are used as controls. The control flasks are treated with solvent only. Four flasks for each compound are then treated with serially-diluted concentrations of the compound. The remaining flasks are left untouched. The cells are incubated for 4 hours at 37°C.
After 4 hours the control flasks are counted (2 counts for each flask) and the cells per mL calculated based on the average of the control counts. The cells are then re-plated into six 60 mm dishes for each flask from dilutions based on the cells/mL of the control. (In the various test runs, cell concentrations ranged from approximately 50 to approximately 800 cells per mL.)
The cells are monitored for colony formation. When visible, the cells are stained with 0.5% crystal violet (in 95% EtOH) and counted. The plating efficiency for each dish is then calculated. The plating efficiencies of the six dishes for each flask are averaged and the standard deviation is calculated. The fraction of cell survival at each concentration is determined based on the controls.

[2] = system: A549; experiment: MTT assay, percent cell survival; conditions: Homo sapiens, A549, 144 h; drug concentration that killed 50% of the cultured cells; MTT six days after drug treatment; read-out: ID50(µM) A549
Protocol: as §1
(§2) Here, a conventional MTT assay was used to evaluate percent cell survival. Exponentially growing monolayer cells were plated in 96-well plates at a density of 500 cells per well and allowed to grow for 24 hours. Serial dilutions of the drugs were added to the wells. Six days after drug treatment, 25 µl of MTT solution (5 mg/ml) was added to each well and incubated for 4 hours at 37°C. Then 100 µl of lysis buffer (20% sodium dodecyl sulfate, 50% DMF, and 0.8% acetic acid, pH 4.7) was added to each well and incubated for an additional 22 hours. A microplate reader ("EMAX"-brand, Molecular Devices, Sunnyvale, California) set at 570 nm was used to determine the optical density of the cultures. Results are expressed as a ratio of the optical density in drug-treated wells to the optical density in wells treated with vehicle only.
(§3) The ID50 is the drug concentration that killed 50% of the cultured cells.

[3] = system: HT-29; experiment: MTT assay, percent cell survival; conditions: Homo sapiens, HT-29, 144 h; drug concentration that killed 50% of the cultured cells; MTT six days after drug treatment; read-out: ID50(µM) HT-29
Protocol: as §1, §2, §3

[4] = system: MCF7; experiment: MTT assay, percent cell survival; conditions: Homo sapiens, MCF7, 144 h; drug concentration that killed 50% of the cultured cells; MTT six days after drug treatment; read-out: ID50(µM) MCF7
Protocol: as §1, §2, §3

[5] = system: PC-3; experiment: MTT assay, percent cell survival; conditions: Homo sapiens, PC-3, 144 h; drug concentration that killed 50% of the cultured cells; MTT six days after drug treatment; read-out: ID50(µM) PC-3
Protocol: as §1, §2, §3

[6] = system: U251MG NCl; experiment: MTT assay, percent cell survival; conditions: Homo sapiens, U-251, 144 h; drug concentration that killed 50% of the cultured cells; MTT six days after drug treatment; read-out: ID50(µM) U251MG NCl
Protocol: as §1, §2, §3

SMILES	EC50 [1] [nM]	IC50 [2] [µM]	IC50 [3] [µM]	IC50 [4] [µM]	IC50 [5] [µM]	IC50 [6] [µM]
CCNCCCNC[C@@H]1C[C@@H]1CNCCCNCC [SL-11037, N-Ethyl-N'-(2-(3'-ethylamino-propylaminomethyl)-cis-cyclopropylmethyl)-propane 1,3-diamine tetrahydrochloride]	1640	0.12	1.6	> 31.2	7.4	–
CCNCCCNCC1CC1CNCCCNCC (stereo not drawn) [SL-11038, N-Ethyl-N'-(2-(3'-ethylamino-propylaminomethyl)-trans-cyclopropylmethyl)-propane-1,3-diamine tetrahydrochloride]	1340	0.25	1.4	> 31.2	12.4	–
CCNCCCNC[C@H]1CC[C@H]1CNCCCNCC [SL-11043, N-Ethyl-N'-(2-(3'-ethylamino-propylaminomethyl)-cis-cyclobutylmethyl)-propanel,3-diamine tetrahydrochloride]	1640	–	1.5	25.5	> 31.2	–
CCNCCCNCC1CCC1CNCCCNCC (stereo not drawn) [SL-11044, N-Ethyl-N'-(2-(3'-ethylamino-propylaminomethyl)-trans-cyclobutylmethyl)-propane1,3-diaminetetrahydrochloride]	1790	–	1.6	> 31.2	> 31.2	0.12
CCNCCCNC/C=C\CNCCCNCC [SL-11047, N,N^1-bis(3-ethylaminapropyl)-(Z)-but-2-ene-1,4-diamine tetrahydrochloride]	1490	0.25	1.6	9.5	3.6	0.55
CCNCCCNC/C=C/CNCCCNCC [SL-11048, N,Nl-bis(3-ethylaminopropyl)-(E)-but-2-ene-1,4-diamine tetrahydrochloride, reference compound]	1490	0.26	1.4	> 31.2	1.4	2
